“And” between values parts separate entries of the source, which are not always exact repeats. Identical values can stand only once. Inconclusive results and toxic doses are left out.
Tested on: P388 leukemia ip, CD2F1 mice, survival T/C
Experiment: NCI In Vivo Anticancer Drug Screen. Data for tumor model P388 Leukemia (intraperitoneal) in CD2F1 (CDF1) mice
Settings: endpoint: median survival time, higher = longer survival
Summary of the method: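 Mice carrying the transplanted tumor received test compound or vehicle. Survival was recorded in each group, and the value is the treated-group measurement divided by that of the vehicle-treated control group.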

[1] = dose: 50.0 mg/kg/injection, schedule: Q01DX009 (ip), vehicle: Klucel (hydroxypropylcellulose) (HPC)
[2] = dose: 100.0 mg/kg/injection, schedule: Q01DX009 (ip), vehicle: Klucel (hydroxypropylcellulose) (HPC)

In the case of CCCCCCCCSC1=C(Cl)C(=O)C(OC)=C(OC)C1=O, the T/C (dose: 1.5 mg/kg/injection, schedule: Q04DX002 (ip), vehicle: saline with Tween-80) is reported as 101 % of control, the T/C (dose: 3.0 mg/kg/injection, schedule: Q04DX002 (ip), vehicle: saline with Tween-80) is reported as 99 % of control and the T/C (dose: 6.0 mg/kg/injection, schedule: Q04DX002 (ip), vehicle: saline with Tween-80) is reported as 99 % of control. For the same molecule, the T/C (dose: 6.25 mg/kg/injection, schedule: Q01DX009 (ip), vehicle: saline with Tween-80) was 101 % of control, the T/C (dose: 12.0 mg/kg/injection, schedule: Q04DX002 (ip), vehicle: saline with Tween-80) was 108 % of control and the T/C (dose: 12.5 mg/kg/injection, schedule: Q01DX009 (ip), vehicle: saline with Tween-80) was 105 % of control. For the same molecule, the T/C (dose: 24.0 mg/kg/injection, schedule: Q04DX002 (ip), vehicle: saline with Tween-80) was 108 % of control, the T/C (dose: 25.0 mg/kg/injection, schedule: Q01DX009 (ip), vehicle: saline with Tween-80) was 111 % of control and the T/C (dose: 48.0 mg/kg/injection, schedule: Q04DX002 (ip), vehicle: saline with Tween-80) was 107 % of control.

In the case of CCCCN=Cc1ccccc1, the T/C (dose: 100.0 mg/kg/injection, schedule: Q04DX003 (ip), vehicle: saline with Tween-80) is reported as 100 % of control and the T/C (dose: 200.0 mg/kg/injection, schedule: Q04DX003 (ip), vehicle: saline with Tween-80) is reported as 100 % of control.

COc1cc(/C=C\C(=O)c2cccc(O)c(=O)c2)cc(OC)c1OC was tested, and the T/C [1] was 112 % of control and the T/C [2] was 87 % of control.

COC(CNC(=O)Nc1cccnc1)[CH2][Hg][Cl] (configuration not stated) was tested, and the T/C (dose: 25.0 mg/kg/injection, schedule: Q04DX003 (ip), vehicle: saline with Tween-80) was 91 % of control and the T/C (dose: 50.0 mg/kg/injection, schedule: Q04DX003 (ip), vehicle: saline with Tween-80) was 116 % of control.

With CN1C2CCC1CC(=NOS(=O)(=O)CC13CCC(CC1=O)C3)C2 (configuration not stated) the T/C (dose: 50.0 mg/kg/injection, schedule: Q01DX005 (ip), vehicle: saline) was 100 % of control, the T/C (dose: 100.0 mg/kg/injection, schedule: Q01DX005 (ip), vehicle: saline) was 103 % of control and the T/C (dose: 200.0 mg/kg/injection, schedule: Q01DX005 (ip), vehicle: saline) was 115 % of control.

In the case of CCCNC(=O)NNC(=O)c1ccc(NC(=O)NCCC)cc1, the T/C [1] is reported as 101 % of control, the T/C [2] is reported as 102 % of control and the T/C (dose: 200.0 mg/kg/injection, schedule: Q01DX009 (ip), vehicle: Klucel (hydroxypropylcellulose) (HPC)) is reported as 89 % of control.

With COc1cccc2c1C(=O)c1c(O)c3c(c(O)c1C2=O)C[C@@](O)(/C(C)=N\NC(=O)CO)C[C@@H]3OC1CC(N)C(O)C(C)O1 (some centres not stated) the T/C (dose: 0.29 mg/kg/injection, schedule: Q04DX003 (ip), vehicle: saline) was 118 % of control, the T/C (dose: 0.78 mg/kg/injection, schedule: Q01DX009 (ip), vehicle: water) was 153 % of control and the T/C (dose: 1.0 mg/kg/injection, schedule: Q01DX009 (ip), vehicle: saline) was 152 % of control. The T/C (dose: 1.0 mg/kg/injection, schedule: Q04DX003 (ip), vehicle: saline) was 150 % of control, the T/C (dose: 1.32 mg/kg/injection, schedule: Q04DX003 (ip), vehicle: saline) was 150 % of control and the T/C (dose: 1.5 mg/kg/injection, schedule: Q01DX009 (ip), vehicle: saline) was 154 % of control. For the same molecule, the T/C (dose: 1.56 mg/kg/injection, schedule: Q01DX009 (ip), vehicle: water) was 160 % of control, the T/C (dose: 2.0 mg/kg/injection, schedule: Q01DX009 (ip), vehicle: water) was 166 % of control and the T/C (dose: 2.0 mg/kg/injection, schedule: Q04DX003 (ip), vehicle: saline) was 154 % of control. The T/C (dose: 2.25 mg/kg/injection, schedule: Q01DX009 (ip), vehicle: saline) was 189 % of control, the T/C (dose: 2.5 mg/kg/injection, schedule: Q04DX003 (ip), vehicle: water) was 119 % of control and the T/C (dose: 3.0 mg/kg/injection, schedule: Q04DX003 (ip), vehicle: saline) was 177 % of control. The T/C (dose: 3.13 mg/kg/injection, schedule: Q01DX009 (ip), vehicle: water) was 180 % of control, the T/C (dose: 4.0 mg/kg/injection, schedule: Q01DX009 (ip), vehicle: water) was 192 % of control and the T/C (dose: 5.0 mg/kg/injection, schedule: Q04DX003 (ip), vehicle: water) was 119 % of control. For the same molecule, the T/C (dose: 6.25 mg/kg/injection, schedule: Q01DX009 (ip), vehicle: water) was 108 % of control, the T/C (dose: 40.0 mg/kg/injection, schedule: Q04DX003 (ip), vehicle: water) was 90 % of control and the T/C (dose: 80.0 mg/kg/injection, schedule: Q04DX003 (ip), vehicle: water) was 90 % of control and 96 % of control.

O=C(Nc1ccc(Cl)c(Cl)c1)NC1CC1 was tested, and the T/C (dose: 50.0 mg/kg/injection, schedule: Q01DX009 (ip), vehicle: saline with Tween-80) was 119 % of control, the T/C (dose: 100.0 mg/kg/injection, schedule: Q01DX009 (ip), vehicle: saline with Tween-80) was 102 % of control and the T/C (dose: 200.0 mg/kg/injection, schedule: Q01DX009 (ip), vehicle: saline with Tween-80) was 93 % of control.
